# Test: accelerated degradation studies (chemical stability, purity by HPLC)
# Assay type: physicochemical
# Excerpt: Crystalline particles of Form S of the compound of formula (I) were obtained using the methods described in Example 5 above. Crystalline particles of Form A were also obtained, using the ethyl acetate-heptane crystallization system described in WO2010/071583. Samples of Form A and Form S were subject to accelerated degradation studies. Samples of each crystalline form were stored at varying combinations of temperature and relative humidity and analysed for purity by HPLC at 0, 14 and 28 days.
# [1] = 60 °C, 30% relative humidity, Day 0
# [2] = 60 °C, 30% relative humidity, Day 14
# [3] = 60 °C, 30% relative humidity, Day 28
# [4] = 60 °C, 75% relative humidity, Day 0
# [5] = 60 °C, 75% relative humidity, Day 14
# [6] = 60 °C, 75% relative humidity, Day 28
# [7] = 70 °C, 11% relative humidity, Day 0
# [8] = 70 °C, 11% relative humidity, Day 14
# [9] = 70 °C, 11% relative humidity, Day 28
# [10] = 70 °C, 75% relative humidity, Day 0
# [11] = 70 °C, 75% relative humidity, Day 14
# [12] = 70 °C, 75% relative humidity, Day 28
# [13] = 80 °C, 30% relative humidity, Day 0
# [14] = 80 °C, 30% relative humidity, Day 14
# [15] = 80 °C, 30% relative humidity, Day 28
Purity by HPLC [1] [%],Purity by HPLC [2] [%],Purity by HPLC [3] [%],Purity by HPLC [4] [%],Purity by HPLC [5] [%],Purity by HPLC [6] [%],Purity by HPLC [7] [%],Purity by HPLC [8] [%],Purity by HPLC [9] [%],Purity by HPLC [10] [%],Purity by HPLC [11] [%],Purity by HPLC [12] [%],Purity by HPLC [13] [%],Purity by HPLC [14] [%],Purity by HPLC [15] [%],SMILES,"degradation in accelerated degradation studies (under all the conditions that the samples were exposed to, Form S compared with Form A)"
99.77,99.77,99.77,99.77,99.64,99.63,99.77,99.77,99.77,99.77,99.77,99.77,99.77,99.77,99.78,"CNCCOc1ccccc1C1(Nc2nccn(-c3cc(C(=O)NC4CC4)cc(F)c3C)c2=O)CC1 [Form S, N-cyclopropyl-3-fluoro-4-methyl-5-[3-[[1-[2-[2-(methylamino)ethoxy]phenyl]cyclopropyl]amino]-2-oxo-pyrazin-1-yl]benzamide]",significantly less degradation than Form A
99.43,99.41,99.39,99.43,99.20,99.21,99.43,99.33,99.33,99.43,98.78,98.76,99.43,99.40,99.36,"CNCCOc1ccccc1C1(Nc2nccn(-c3cc(C(=O)NC4CC4)cc(F)c3C)c2=O)CC1 [Form A, N-cyclopropyl-3-fluoro-4-methyl-5-[3-[[1-[2-[2-(methylamino)ethoxy]phenyl]cyclopropyl]amino]-2-oxo-pyrazin-1-yl]benzamide, reference compound]",

# Reference: patent US20190100498A1, “CRYSTALLINE FORM” (AstraZeneca AB, priority 2016, published 2019)
